Results from patent US9540361B2, “N-substituted azetidine derivatives” (Merck Sharp & Dohme B.V., priority 2010, dated 2017).
Counter-ions that a name gives are not always drawn. Marks after values point to notes of the source that are not given here.

Tests used:
[1] = biological target: T1, human estrogen receptor α (hERα) (Homo sapiens, UniProt P03372); test: antagonistic activity in CHO cells co-transfected with hERα, rat oxytocin promoter and luciferase reporter gene; assay type: cell-based; details: antagonism of 17β-estradiol-induced transactivation, CHO-hERα-RO-LUC; read-out: ERα pIC50 (converted)
T1 sequence (P03372 1-595): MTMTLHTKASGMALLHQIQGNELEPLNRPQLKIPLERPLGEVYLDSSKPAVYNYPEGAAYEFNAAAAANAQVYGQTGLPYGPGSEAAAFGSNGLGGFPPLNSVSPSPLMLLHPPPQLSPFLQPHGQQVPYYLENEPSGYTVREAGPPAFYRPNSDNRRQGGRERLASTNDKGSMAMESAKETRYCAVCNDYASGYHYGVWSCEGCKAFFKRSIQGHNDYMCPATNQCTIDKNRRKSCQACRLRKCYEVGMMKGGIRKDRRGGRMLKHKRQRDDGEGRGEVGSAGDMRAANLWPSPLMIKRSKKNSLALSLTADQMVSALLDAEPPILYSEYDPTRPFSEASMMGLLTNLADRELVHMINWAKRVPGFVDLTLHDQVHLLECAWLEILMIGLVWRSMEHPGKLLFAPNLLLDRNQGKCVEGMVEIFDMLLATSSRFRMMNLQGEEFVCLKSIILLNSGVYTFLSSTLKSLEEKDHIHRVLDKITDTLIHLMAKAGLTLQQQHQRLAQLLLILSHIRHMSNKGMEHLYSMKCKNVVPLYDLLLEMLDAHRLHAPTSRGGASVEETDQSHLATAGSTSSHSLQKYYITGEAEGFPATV
Experimental: The antagonistic activity of compounds on the estrogen receptors was determined in an in vitro bioassay with recombinant Chinese Hamster Ovary (CHO) cells stably co-transfected with the human estrogen receptor α (hERα), the rat oxytocin promoter (RO) and the luciferase reporter gene (LUC). […] The antagonistic efficacy, i.e. the amount of maximal inhibition of the 17β-estradiol activated receptor by a compound, is expressed as fraction relative to the maximal inhibition as induced by the standard anti-estrogen ICI 164,384 (efficacy test compound=(maximal inhibition test compound/maximal inhibition ICI 164,384)). A more detailed description of the methodology can be found in De Gooyer et al., Steroids, 68 (2003) 21-30.

estrogen receptor alpha = biological target: T2, estrogen receptor alpha (Homo sapiens, UniProt P03372); test: ERα downregulation assay in T47D breast cancer cells (ERα ELISA); assay type: cell-based; details: downregulation of ERα relative to fulvestrant (100%), 1E-5 M, 24 hours, negative = upregulation
T2 construct: endogenous in cells; host or cells: T47D human breast cancer cells (ATCC)
T2 sequence (P03372 1-595): T1 sequence (P03372 1-595)
From the text: More specifically, this in vitro bioassay is used to determine the efficacy (fraction of maximal response) of the compound by comparing the data for this compound with those of the reference compound ICI 182,780 (fulvestrant) in the same test (downregulation of fulvestrant is 100% by definition).
A more detailed description of the method used is as follows.
Cell culture. The human epithelial breast cancer cell line T47D (origin: ATCC) was routinely maintained in a 1:1 mixture of Ham's F12 medium and Dulbecco's Modified Eagle Medium (Gibco) enriched with 5% fetal calf serum (Hyclone), 10 mM HEPES pH 7.5 and 100 μg/ml penicillin-streptomycin solution. Cells were grown in 80 cm2 culture flasks (Nunc, Roskilde, Denmark) and kept in an atmosphere of 5% CO2-95% air at 37 degrees Celsius. Cells were subcultured when they reached about 80-90% confluence, resulting in one passage a week. Subculturing includes detaching the cells using Cell Dissociation Buffer [Sigma] and subsequent inoculation at 1:5 or 1:10 in a new Roux flask (175 cc) and\or plating out in Nunclon™ Surface 96 wells microplates. The culture medium needs to be refreshed on day three or four of the incubation, if applicable.
Determination of ERα protein levels: T47D cells in the microplates are incubated with 1E-5 M test compound for 24 hours. The supernatant in all wells is carefully aspirated. Cells are lysed on the microplate and cell lysates are probed for ERα content using an ERα ELISA assay kit (Active Motif).

Compound	IC50 [1]	DR (%) (estrogen receptor alpha)
CCCN1CC(Oc2ccc(C(=O)c3c(-c4cccs4)sc4cc(O)ccc34)cc2)C1.Cl [compound 7f, (6-hydroxy-2-(thiophen-2-yl)benzo[b]thiophen-3-yl)(4-(1-propylazetidin-3-yl-oxy)phenyl)methanone hydrochloride]	2.51 nM	88%
CCCN1CC(Oc2ccc(Oc3c(-c4ccc(O)cc4)sc4cc(O)ccc34)cc2)C1.O=C(O)C(F)(F)F [compound 6c, 2-(4-hydroxyphenyl)-3-(4-(1-propylazetidin-3-yloxy)phenoxy)benzo[b]thiophen-6-ol 2,2,2-trifluoroacetate]	0.251 nM	7 ^(c) %
CCCN1CC(Oc2ccc(C(=O)c3c(-c4ccccc4Cl)noc3-c3ccccc3)cc2)C1 [compound 7ao, (3-(2-chlorophenyl)-5-phenyl)isoxazol-4-yl)(4-(1-propylazetidin-3-yloxy)-phenyl)methanone hydrochloride]	25.1 nM	80%
COCCCN1CC(Oc2ccc(C(=O)c3c(-c4ccc(O)cc4)sc4cc(O)ccc34)cc2)C1.O=C(O)C(F)(F)F [compound 7k, (6-hydroxy-2-(4-hydroxyphenyl)benzo[b]thiophen-3-yl)(4-(1-(3-methoxypropyl)azetidin-3-yloxy)phenyl)methanone 2,2,2-trifluoroacetate]	2 nM	57%
Cl.O=C(c1ccc(OC2CN(CCC(F)(F)F)C2)cc1)c1c(-c2ccc(O)cc2)sc2cc(O)ccc12 [compound 7p, (6-hydroxy-2-(4-hydroxyphenyl)benzo[b]thiophen-3-yl)(4-(1-(3,3,3-trifluoropropyl)azetidin-3-yloxy)phenyl)methanone hydrochloride]	5.01 nM	35%
CCCN1CC(Oc2ccc(C(=O)c3c(-c4ncccc4C)noc3-c3ccc(O)cc3)cc2)C1.Cl [compound 7am, (5-(4-hydroxyphenyl)-3-(3-methylpyridin-2-yl)isoxazol-4-yl)(4-(1-propylazetidin-3-yloxy)phenyl)methanone hydrochloride]	25.1 nM	93%
CCCN1CC(Oc2ccc(-c3c(-c4cccc(C)c4C)noc3-c3ccc(O)cc3)cc2)C1.O=C(O)C(F)(F)F [compound 7ac, 4-(3-(2,3-dimethylphenyl)-4-(4-(1-propylazetidin-3-yloxy)phenyl)isoxazol-5-yl)phenol 2,2,2-trifluoroacetate]	1.58 nM	94%
CCCN1CC(Oc2ccc(C(=O)c3c(-c4ccc(F)c(C)c4)sc4cc(O)ccc34)cc2)C1.Cl [compound 7s, (2-(4-fluoro-3-methylphenyl)-6-hydroxybenzo[b]thiophen-3-yl)(4-(1-propylazetidin-3-yloxy)phenyl)methanone hydrochloride]	5.01 nM	101%
CCCN1CC(Oc2ccc(-c3c(-c4c(C)cccc4Cl)noc3-c3ccc(O)cc3)cc2)C1.O=C(O)C(F)(F)F [compound 7ab, 4-(3-(2-chloro-6-methylphenyl)-4-(4-(1-propylazetidin-3-yloxy)phenyl)isoxazol-5-yl)phenol 2,2,2-trifluoroacetate]	0.398 nM	86%
O=C(O)C(F)(F)F.O=C(c1ccc(OC2CN(C3CC3)C2)cc1)c1c(-c2ccc(O)cc2)sc2cc(O)ccc12 [compound 7i, (4-(1-cyclopropylazetidin-3-yloxy)phenyl)(6-hydroxy-2-(4-hydroxyphenyl)-benzo[b]thiophen-3-yl)methanone 2,2,2-trifluoroacetate]	2.51 nM	66%
CCCN1CC(Oc2ccc(C(=O)c3c(-c4ccccc4Cl)noc3-c3ccc(N)cc3)cc2)C1.O=C(O)C(F)(F)F [compound 7ar, (5-(4-aminophenyl)-3-(2-chlorophenyl)isoxazol-4-yl)(4-(1-propylazetidin-3-yl-oxy)phenyl)methanone 2,2,2-trifluoroacetate]	20 nM	82%
